Test results reported in patent US11987556B2, “Dual-functional compounds and methods of use” (BIOFRONT THERAPEUTICS (BEIJING) CO., LTD., priority 2020, dated 2024).
pIC50: −log10 of the molar value.

Key:
human recombinant PDE4A = human recombinant PDE4A (Homo sapiens (Human), UniProt P27815); experiment: PDE fluorescence polarization assay (BPS Bioscience kit), PDE4A; type: biochemical; settings: FAM-cAMP substrate, 1 hr at room temperature; read-out: IC50 for inhibiting PDE4A
Description: (§1) The inhibition of PDE4 (e.g., PDE4A, PDE4C) activity by the compounds (e.g., compound-1, compound-2, compound-3, compound-4, compound-5, and compound-6) are monitored using the PDE fluorescence polarization assay kits from BPS Bioscience (San Diego, USA) following the provided procedure. This assay is based on the selective binding of the fluorescent dye FAM-labelled AMP generated by the PDEs from the FAM-cAMP to its binding beads.
(§2) Briefly, compounds (2.5 ul of different concentrations diluted in the assay buffer) were mixed with 12.5 uL of the FAM-cAMP substrate (200 nM in the assay buffer) in a 384-well plate, 10 ul of the human recombinant PDE4A (BPS, Catalog #60340) or PDE4C (BPS, Catalog #60384) was added. The plate was incubated for 1 hr at room temperature. 50 ul of the binding agent for FAM-AMP was added. The mixture was incubated at room temperature for 20 min. The amount of binding agent bound FAM-AMP was measured by the fluorescence polarization method on the Envision spectrometer. The potency (IC50 value, Table1) of exemplified compounds was calculated from the dose-response curve using the 4-parameter non-linear regression fitting routine.

human recombinant PDE4C = human recombinant PDE4C (Homo sapiens (Human), UniProt Q08493); experiment: PDE fluorescence polarization assay (BPS Bioscience kit), PDE4C; type: biochemical; settings: FAM-cAMP substrate, 1 hr at room temperature; read-out: IC50 for inhibiting PDE4C
Description: as §1, §2

[1] = Blood level of compound-6 produced after oral dosing of compound-1 in mice; type: in vivo; settings: 5 mg/kg
Description: The exemplified compound-1 (formulated at 0.5 mg/mL in 0.5% carboxymethyl cellulose (CMC)/0.25% Tween-80 in water as a suspension) was dosed orally to 4 mice at 5 mg/kg. […] Approximately 200 ng/mL of compound-6 was detected in the blood at 15 min. Compound-6 blood level peaked at approximately 250 ng/mL between 1 to 2 hrs, and mostly cleared to around 25 ng/mL at 6 hr. […] This kinetic profile of compound-6 blood level provides the opportunities to treat diseases that are responsive to compound-6 treatment, beyond dosing compound-6 directly, such as reducing the expected high Cmax-caused side effects from directly dosing compound-6.

Sequence of human recombinant PDE4A (P27815 other isoform, or with tags, fused parts or gaps isoform P27815-4): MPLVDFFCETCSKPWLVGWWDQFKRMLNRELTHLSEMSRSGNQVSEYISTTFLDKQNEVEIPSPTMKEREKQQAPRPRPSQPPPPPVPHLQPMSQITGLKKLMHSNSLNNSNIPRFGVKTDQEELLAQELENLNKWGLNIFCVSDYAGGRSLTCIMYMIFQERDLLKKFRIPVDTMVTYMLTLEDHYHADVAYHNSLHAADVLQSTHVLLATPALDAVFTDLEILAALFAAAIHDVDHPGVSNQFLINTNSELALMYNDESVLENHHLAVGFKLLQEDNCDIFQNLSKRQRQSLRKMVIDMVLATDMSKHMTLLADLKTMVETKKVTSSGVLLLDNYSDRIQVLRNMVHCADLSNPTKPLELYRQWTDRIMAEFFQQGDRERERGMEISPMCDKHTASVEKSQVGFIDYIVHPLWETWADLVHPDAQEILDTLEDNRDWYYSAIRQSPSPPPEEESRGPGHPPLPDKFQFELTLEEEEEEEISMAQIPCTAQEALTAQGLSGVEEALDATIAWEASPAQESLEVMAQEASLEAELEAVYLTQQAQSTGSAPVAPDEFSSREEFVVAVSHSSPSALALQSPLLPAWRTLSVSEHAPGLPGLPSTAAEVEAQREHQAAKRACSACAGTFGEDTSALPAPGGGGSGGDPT
Sequence of human recombinant PDE4C (Q08493 whole entry): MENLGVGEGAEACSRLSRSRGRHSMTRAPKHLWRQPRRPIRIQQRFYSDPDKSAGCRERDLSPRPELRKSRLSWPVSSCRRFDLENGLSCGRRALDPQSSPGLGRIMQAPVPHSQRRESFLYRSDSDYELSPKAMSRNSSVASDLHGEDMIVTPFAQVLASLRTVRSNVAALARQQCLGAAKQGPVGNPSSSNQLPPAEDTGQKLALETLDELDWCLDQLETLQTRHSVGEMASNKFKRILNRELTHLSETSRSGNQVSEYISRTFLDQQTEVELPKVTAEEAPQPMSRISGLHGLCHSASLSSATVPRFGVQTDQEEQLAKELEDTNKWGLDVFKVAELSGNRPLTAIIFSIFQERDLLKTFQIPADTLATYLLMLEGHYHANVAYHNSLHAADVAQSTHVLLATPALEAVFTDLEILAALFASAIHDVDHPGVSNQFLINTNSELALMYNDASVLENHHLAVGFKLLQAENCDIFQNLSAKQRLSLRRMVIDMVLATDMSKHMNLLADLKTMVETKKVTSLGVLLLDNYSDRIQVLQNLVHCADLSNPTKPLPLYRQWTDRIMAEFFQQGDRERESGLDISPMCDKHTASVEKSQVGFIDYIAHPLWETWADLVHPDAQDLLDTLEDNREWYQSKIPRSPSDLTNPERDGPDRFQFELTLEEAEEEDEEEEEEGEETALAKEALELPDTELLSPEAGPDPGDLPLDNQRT

| pIC50 (human recombinant PDE4A) | pIC50 (human recombinant PDE4C) | bioactivation after oral dosing, forming metabolite compound-6 [1] | Compound |
| --- | --- | --- | --- |
| 6.75 | 5.65 | bioactivated rapidly | CCOc1cc([C@@H](CS(C)(=O)=O)N2C(=O)c3cccc(NC(=O)COC(=O)C(C)(C)CO[N+](=O)[O-])c3C2=O)ccc1OC [compound-1, (S)-2-((2-(1-(3-ethoxy-4-methoxyphenyl)-2-(methylsulfonyl)ethyl)-1,3-dioxoisoindolin-4-yl)amino)-2-oxoethyl 2,2-dimethyl-3-(nitrooxy)propanoate] |
| 7.42 | 6.08 |  | CCOc1cc([C@@H](CS(C)(=O)=O)N2C(=O)c3cccc(NC(=O)CNC(=O)O[C@H]4CO[C@H]5[C@@H]4OC[C@H]5O[N+](=O)[O-])c3C2=O)ccc1OC [compound-5, (3S,3aR,6R,6aS)-6-(nitrooxy)hexahydrofuro[3,2-b]furan-3-yl (2-((2-((S)-1-(3-ethoxy-4-methoxyphenyl)-2-(methylsulfonyl)ethyl)-1,3-dioxoisoindolin-4-yl)amino)-2-oxoethyl)carbamate] |
| 6.67 | 5.99 |  | CCOc1cc([C@@H](CS(C)(=O)=O)N2C(=O)c3cccc(NC(=O)CNC(=O)C(C)(C)CO[N+](=O)[O-])c3C2=O)ccc1OC [compound-3, (S)-3-((2-((2-(1-(3-ethoxy-4-methoxyphenyl)-2-(methylsulfonyl)ethyl)-1,3-dioxoisoindolin-4-yl)amino)-2-oxoethyl)amino)-2,2-dimethyl-3-oxopropyl nitrate] |
| 6.15 | 6.96 |  | CCOc1cc([C@@H](CS(C)(=O)=O)N2C(=O)c3cccc(NC(=O)CO[C@H]4CO[C@H]5[C@@H]4OC[C@H]5O[N+](=O)[O-])c3C2=O)ccc1OC [compound-4, (3R,3aS,6S,6aR)-6-(2-((2-((S)-1-(3-ethoxy-4-methoxyphenyl)-2-(methylsulfonyl)ethyl)-1,3-dioxoisoindolin-4-yl)amino)-2-oxoethoxy)hexahydrofuro[3,2-b]furan-3-yl nitrate] |
| 6.67 | 6.13 |  | CCOc1cc([C@@H](CS(C)(=O)=O)N2C(=O)c3cccc(NC(=O)CO)c3C2=O)ccc1OC [compound-6, N-{2-[(1S)-1-(3-ethoxy-4-methoxyphenyl)-2-methanesulfonylethyl]-1,3-dioxoisoindol-4-yl}-2-hydroxyacetamide] |

| Compound | pIC50 (human recombinant PDE4A) | pIC50 (human recombinant PDE4C) | bioactivation after oral dosing, forming metabolite compound-6 [1] |
| --- | --- | --- | --- |
| CCOc1cc([C@@H](CS(C)(=O)=O)N2C(=O)c3cccc(NC(=O)COC(=O)C(C)(CO[N+](=O)[O-])CO[N+](=O)[O-])c3C2=O)ccc1OC [compound-2, (S)-2-((2-(1-(3-ethoxy-4-methoxyphenyl)-2-(methylsulfonyl)ethyl)-1,3-dioxoisoindolin-4-yl)amino)-2-oxoethyl 2-methyl-3-(nitrooxy)-2-((nitrooxy)methyl)propanoate] | 6.51 | 5.65 |  |
